{"source": "paper PMC9513391", "about": "“Crystal structure of the α-ketoglutarate-dependent non-heme iron oxygenase CmnC in capreomycin biosynthesis and its engineering to catalyze hydroxylation of the substrate enantiomer” (Frontiers in Chemistry, 2022)", "type_in_all_cases": "binding", "key": {"CmnC [1]": {"target": "T1, CmnC (Saccharothrix mutabilis, UniProt A6YEH4, L136Q/S138G/D249Y)", "T1 construct": "cmnC amplified from genomic DNA in pET28a, E. coli BL21 (DE3), Ni-NTA purified; homodimer in crystal and by size-exclusion chromatography", "T1 sequence (A6YEH4 1-338 L136Q/S138G/D249Y)": "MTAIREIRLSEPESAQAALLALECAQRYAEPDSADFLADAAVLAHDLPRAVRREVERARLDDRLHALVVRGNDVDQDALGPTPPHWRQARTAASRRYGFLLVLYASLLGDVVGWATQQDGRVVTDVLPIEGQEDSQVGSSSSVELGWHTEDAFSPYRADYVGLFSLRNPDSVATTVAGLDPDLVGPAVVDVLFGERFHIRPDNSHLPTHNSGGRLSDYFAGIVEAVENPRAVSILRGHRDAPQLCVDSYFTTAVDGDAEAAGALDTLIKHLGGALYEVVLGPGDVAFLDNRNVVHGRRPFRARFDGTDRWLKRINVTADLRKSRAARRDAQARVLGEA", "assay": "X-ray crystal structure by soaking, […] Å; hydroxylation by LC-MS", "settings": "20 mM D-Arg soak, 12 h; activity: α-KG, Fe(II), ascorbate, pH 7.0, 26 °C"}, "CmnC [2]": {"target": "T2, CmnC (Saccharothrix mutabilis, UniProt A6YEH4)", "T2 construct": "cmnC amplified from genomic DNA in pET28a, E. coli BL21 (DE3), Ni-NTA purified; homodimer in crystal and by size-exclusion chromatography", "T2 sequence (A6YEH4 1-338)": "as the sequence (A6YEH4 1-338 L136Q/S138G/D249Y) above, with Q136L, G138S, Y249D counted along it", "assay": "X-ray crystal structure by soaking; hydroxylation by LC-MS", "settings": "0.1 mM FeCl2 soak"}, "CmnC [3]": {"target": "T2, CmnC", "assay": "X-ray crystal structure by soaking", "settings": "3 mM α-KG, 0.1 mM FeCl2 soak, 12 h; ternary complex with L-Arg also solved"}, "CmnC [4]": {"target": "T1, CmnC", "assay": "X-ray crystal structure by soaking, […] Å", "settings": "3 mM α-KG and 0.1 mM FeCl2 soak, 12 h"}}, "data": [{"smiles": "N=C(N)NCCC[C@@H](N)C(=O)O", "note": "[D-Arg]", "values": [{"measurement": "X-ray crystal structure by soaking, 1.75 Å; hydroxylation by LC-MS", "setting": "CmnC [1]", "result": "crystal structures of CmnC^L136Q,S138G,D249Y in complex with α-KG (CmnC^triple,α-kg) and D-Arg (CmnC^triple,D−Arg)"}]}, {"smiles": "N=C(N)NCCC[C@H](N)C(=O)O", "note": "[L-Arg]", "values": [{"measurement": "X-ray crystal structure by soaking; hydroxylation by LC-MS", "setting": "CmnC [2]; 3 mM L-Arg, tartrate in α-KG site in the binary complex, ternary complex with α-KG also solved", "result": "in complex with L-Arg (CmnC^ L−Arg), L-hArg (CmnC^ L-hArg), α-KG (CmnC^α-kg)"}]}, {"smiles": "N=C(N)NCCCC[C@H](N)C(=O)O", "note": "[L-hArg]", "values": [{"measurement": "X-ray crystal structure by soaking; hydroxylation by LC-MS", "setting": "CmnC [2]; 3 mM L-hArg, tartrate in α-KG site", "result": "in complex with L-Arg (CmnC^ L−Arg), L-hArg (CmnC^ L-hArg), α-KG (CmnC^α-kg)"}]}, {"smiles": "O=C(O)CCC(=O)C(=O)O", "note": "[α-KG]", "values": [{"measurement": "X-ray crystal structure by soaking", "setting": "CmnC [3]", "result": "L-hArg (CmnC^ L-hArg), α-KG (CmnC^α-kg), and L-Arg/α-KG (CmnC^ L−Arg,α-kg)"}, {"measurement": "X-ray crystal structure by soaking, 1.67 Å", "setting": "CmnC [4]", "result": "crystal structures of CmnC^L136Q,S138G,D249Y in complex with α-KG (CmnC^triple,α-kg)"}]}]}
